Measured values: patent US10869871B2, “Compositions and methods of modulating short-chain dehydrogenase activity” (CASE WESTERN RESERVE UNIVERSITY, priority 2013, dated 2020)

How the values were obtained:
[1] = system: liver; assay: Liver regeneration after partial hepatectomy, C57BL/6J mice; assay type: in vivo; conditions: 5 mg/kg IP bid, one mouse each
[2] = system: cell culture; assay: Toxicity: concentration needed to decrease cell numbers in a cell culture assay; assay type: cell-based
Procedure: (§1) Time to inhibition refers to the time needed to inhibit the generation of NADH by 15-PGDH from the moment with drug is added into the reaction mix. Delta Tm refers to the shift in melting temperature of recombinant 15-PGDH in the presence of drug (with cofactor NADH also present). Concentration of Full Cell Line Reporter Induction refers to the concentration of drug that needs to be added to reporter cell line to achieve maximal induction of the 15-PGDH-luciferase gene fusion reporter cassette, as measured by luciferase assays. Hepatocyte stability refers to the half-life of compound in the presence of hepatocytes in culture. Toxicity refers to the concentration of compound needed to decrease cell numbers in a cell culture assay.

[3] = system: 15-PGDH-luciferase fusion reporter in V9m, LS174T and V503 colon cancer cell lines; assay: 15-PGDH-luciferase fusion reporter induction in colon cancer cell lines; assay type: cell-based; conditions: V9m, LS174T, V503; relative to DMSO
[4] = system: colon; assay: Dextran sodium sulfate (DSS) induced colitis in FVB mice; assay type: in vivo, mouse; conditions: 22 days of study
[5] = Survival of 11Gy irradiated C57BL/6J mice receiving bone marrow allograft; assay type: in vivo, mouse; conditions: 5 mg/kg IP bid
Excerpt: The experimental design is depicted in FIG. 50.
Under the conditions of the mouse colony during this study, control mice receiving 100,000-500,000 cells are all dead between days 4-13 of study. […] Such activity would be of particular utility in settings, such as transplantation with umbilical cord stem cells, in which donor cell numbers are limited.

[6] = system: A549 cells; assay: PGE2 levels in medium of IL1-beta stimulated A549 cells; assay type: cell-based
[7] = 21 day toxicity study in FVB mice (daily weights); assay type: in vivo, mouse; conditions: 5 mg/kg IP twice daily for 21 days
[8] = Survival of mice after whole body irradiation; assay type: in vivo, mouse
[9] = Hepatocyte stability; assay type: in vitro ADME; conditions: compound in presence of hepatocytes in culture; in words
Procedure: as §1

[10] = system: blood and bone marrow; assay: Blood and bone marrow recovery after transplant of 500,000 donor marrow cells; assay type: in vivo, mouse

Compound: CCCC[S+]([O-])c1sc2nc(-c3cccs3)cc(-c3ccccc3)c2c1N (stereo not shown) [SW033291, 2-(butylsulfinyl)-4-phenyl-6-(thiophen-2-yl)thieno[2,3-b]pyridin-3-amine]
- serum ALT levels versus control [1]: lower
- Toxicity [2]: >10 µM
- luciferase activity of 15-PGDH luciferase fusion cells [3]: increase luciferase activity
- change from baseline weight versus control [4]: greater weight at all time points
- number of surviving mice ([5]; 1 × 10^5 donor cells, Day 0): 3
- number of surviving mice ([5]; 1 × 10^5 donor cells, Day 1): 3
- number of surviving mice ([5]; 1 × 10^5 donor cells, Day 2): 3
- number of surviving mice ([5]; 1 × 10^5 donor cells, Day 3): 3
- number of surviving mice ([5]; 1 × 10^5 donor cells, Day 4): 2
- number of surviving mice ([5]; 1 × 10^5 donor cells, Day 5): 1
- number of surviving mice ([5]; 1 × 10^5 donor cells, Day 6): 0
- number of surviving mice ([5]; 2 × 10^5 donor cells, Day 0): 3
- number of surviving mice ([5]; 2 × 10^5 donor cells, Day 1): 3
- number of surviving mice ([5]; 2 × 10^5 donor cells, Day 2): 3
- number of surviving mice ([5]; 2 × 10^5 donor cells, Day 3): 3
- number of surviving mice ([5]; 2 × 10^5 donor cells, Day 4): 3
- number of surviving mice ([5]; 2 × 10^5 donor cells, Day 5): 3
- number of surviving mice ([5]; 2 × 10^5 donor cells, Day 6): 2
- number of surviving mice ([5]; 2 × 10^5 donor cells, Day 7): 2
- number of surviving mice ([5]; 2 × 10^5 donor cells, Day 8): 2
- number of surviving mice ([5]; 2 × 10^5 donor cells, Day 9): 2
- number of surviving mice ([5]; 2 × 10^5 donor cells, Day 10): 2
- number of surviving mice ([5]; 2 × 10^5 donor cells, Day 11): 2
- number of surviving mice ([5]; 2 × 10^5 donor cells, Day 12): 1
- number of surviving mice ([5]; 2 × 10^5 donor cells, Day 13): 0
- number of surviving mice ([5]; 5 × 10^5 donor cells, Day 0): 3
- number of surviving mice ([5]; 5 × 10^5 donor cells, Day 1): 3
- number of surviving mice ([5]; 5 × 10^5 donor cells, Day 2): 3
- number of surviving mice ([5]; 5 × 10^5 donor cells, Day 3): 3
- number of surviving mice ([5]; 5 × 10^5 donor cells, Day 4): 3
- number of surviving mice ([5]; 5 × 10^5 donor cells, Day 5): 3
- number of surviving mice ([5]; 5 × 10^5 donor cells, Day 6): 3
- number of surviving mice ([5]; 5 × 10^5 donor cells, Day 7): 3
- number of surviving mice ([5]; 5 × 10^5 donor cells, Day 8): 2
- number of surviving mice ([5]; 5 × 10^5 donor cells, Day 9): 2
- number of surviving mice ([5]; 5 × 10^5 donor cells, Day 10): 2
- number of surviving mice ([5]; 5 × 10^5 donor cells, Day 11): 2
- number of surviving mice ([5]; 5 × 10^5 donor cells, Day 12): 2
- number of surviving mice ([5]; 5 × 10^5 donor cells, Day 13): 2
- number of surviving mice ([5]; 5 × 10^5 donor cells, Day 19): 2
- rank of PGE2 level in medium ([6]; 100 nM concentration of drug): next highest level of PGE2
- PGE2 level in medium, reflecting 15-PGDH activity ([6]; IL1-beta 23 hours, compound added for last 5 hours): clear inhibition of 15-PGDH activity
- highest PGE2 level achieved in medium ([6]; IL-1β 16 h, compound 8 h): 3000 pg/mL
- mouse weight during treatment [7]: no evidence for SW033291 reducing mouse weight
- number of mice surviving ([8]; 7 Gy, 5 mg/kg IP daily for 7 doses, Day 0): 3
- number of mice surviving ([8]; 7 Gy, 5 mg/kg IP daily for 7 doses, Day 6): 3
- number of mice surviving ([8]; 7 Gy, 5 mg/kg IP daily for 7 doses, Day 7): 3
- number of mice surviving ([8]; 7 Gy, 5 mg/kg IP daily for 7 doses, Day 8): 3
- number of mice surviving ([8]; 7 Gy, 5 mg/kg IP daily for 7 doses, Day 9): 3
- number of mice surviving ([8]; 7 Gy, 5 mg/kg IP daily for 7 doses, Day 10): 3
- number of mice surviving ([8]; 7 Gy, 5 mg/kg IP daily for 7 doses, Day 11): 3
- number of mice surviving ([8]; 7 Gy, 5 mg/kg IP daily for 7 doses, Day 12): 3
- number of mice surviving ([8]; 7 Gy, 5 mg/kg IP daily for 7 doses, Day 13): 3
- number of mice surviving ([8]; 7 Gy, 5 mg/kg IP daily for 7 doses, Day 14): 3
- number of mice surviving ([8]; 7 Gy, 5 mg/kg IP daily for 7 doses, Day 15): 3
- appearance of mice ([8]; 7 Gy, 5 mg/kg IP daily for 7 doses, Day 25 (cell reads Looks Healthy)): Healthy
- number of mice surviving ([8]; 9 Gy, 5 mg/kg IP daily for 7 doses, Day 0): 3
- number of mice surviving ([8]; 9 Gy, 5 mg/kg IP daily for 7 doses, Day 6): 3
- number of mice surviving ([8]; 9 Gy, 5 mg/kg IP daily for 7 doses, Day 7): 3
- number of mice surviving ([8]; 9 Gy, 5 mg/kg IP daily for 7 doses, Day 8): 3
- number of mice surviving ([8]; 9 Gy, 5 mg/kg IP daily for 7 doses, Day 9): 3
- number of mice surviving ([8]; 9 Gy, 5 mg/kg IP daily for 7 doses, Day 10): 3
- number of mice surviving ([8]; 9 Gy, 5 mg/kg IP daily for 7 doses, Day 11): 3
- number of mice surviving ([8]; 9 Gy, 5 mg/kg IP daily for 7 doses, Day 12): 2
- number of mice surviving ([8]; 9 Gy, 5 mg/kg IP daily for 7 doses, Day 13): 2
- number of mice surviving ([8]; 9 Gy, 5 mg/kg IP daily for 7 doses, Day 14): 1
- number of mice surviving ([8]; 9 Gy, 5 mg/kg IP daily for 7 doses, Day 15): 0
- number of mice surviving ([8]; 11 Gy, 5 mg/kg IP 1 dose/daily for 7 days (Table 7), Day 0): 3
- number of mice surviving ([8]; 11 Gy, 5 mg/kg IP 1 dose/daily for 7 days (Table 7), Day 5): 3
- number of mice surviving ([8]; 11 Gy, 5 mg/kg IP 1 dose/daily for 7 days (Table 7), Day 6): 3
- number of mice surviving ([8]; 11 Gy, 5 mg/kg IP 1 dose/daily for 7 days (Table 7), Day 7): 3
- number of mice surviving ([8]; 11 Gy, 5 mg/kg IP 1 dose/daily for 7 days (Table 7), Day 8): 2
- number of mice surviving ([8]; 11 Gy, 5 mg/kg IP 1 dose/daily for 7 days (Table 7), Day 9): 1
- number of mice surviving ([8]; 11 Gy, 5 mg/kg IP 1 dose/daily for 7 days (Table 7), Day 10): 0
- number of mice surviving ([8]; 11 Gy, 5 mg/kg IP 1 dose/daily, continuous every day, Day 0): 3
- number of mice surviving ([8]; 11 Gy, 5 mg/kg IP 1 dose/daily, continuous every day, Day 5): 3
- number of mice surviving ([8]; 11 Gy, 5 mg/kg IP 1 dose/daily, continuous every day, Day 6): 3
- number of mice surviving ([8]; 11 Gy, 5 mg/kg IP 1 dose/daily, continuous every day, Day 7): 3
- number of mice surviving ([8]; 11 Gy, 5 mg/kg IP 1 dose/daily, continuous every day, Day 8): 3
- number of mice surviving ([8]; 11 Gy, 5 mg/kg IP 1 dose/daily, continuous every day, Day 9): 2
- number of mice surviving ([8]; 11 Gy, 5 mg/kg IP 1 dose/daily, continuous every day, Day 10): 0
- number of mice surviving ([8]; 11 Gy, 5 mg/kg IP 2 dose daily for 7 days, Day 0): 3
- number of mice surviving ([8]; 11 Gy, 5 mg/kg IP 2 dose daily for 7 days, Day 5): 3
- number of mice surviving ([8]; 11 Gy, 5 mg/kg IP 2 dose daily for 7 days, Day 6): 3
- number of mice surviving ([8]; 11 Gy, 5 mg/kg IP 2 dose daily for 7 days, Day 7): 3
- number of mice surviving ([8]; 11 Gy, 5 mg/kg IP 2 dose daily for 7 days, Day 8): 3
- number of mice surviving ([8]; 11 Gy, 5 mg/kg IP 2 dose daily for 7 days, Day 9): 2
- number of mice surviving ([8]; 11 Gy, 5 mg/kg IP 2 dose daily for 7 days, Day 10): 0
- longer survival versus vehicle ([8]; 11Gy, 5 mg/kg IP daily for 7 doses): 48 h
- number of mice surviving ([8]; 11 Gy, 5 mg/kg IP daily for 7 doses (Table 6), Day 0): 3
- number of mice surviving ([8]; 11 Gy, 5 mg/kg IP daily for 7 doses (Table 6), Day 5): 3
- number of mice surviving ([8]; 11 Gy, 5 mg/kg IP daily for 7 doses (Table 6), Day 6): 3
- number of mice surviving ([8]; 11 Gy, 5 mg/kg IP daily for 7 doses (Table 6), Day 7): 3
- number of mice surviving ([8]; 11 Gy, 5 mg/kg IP daily for 7 doses (Table 6), Day 8): 3
- number of mice surviving ([8]; 11 Gy, 5 mg/kg IP daily for 7 doses (Table 6), Day 9): 2
- number of mice surviving ([8]; 11 Gy, 5 mg/kg IP daily for 7 doses (Table 6), Day 10): 0
- longer survival on average versus vehicle ([8]; 11Gy, any of the 5 mg/kg dosing schedules): 1 to 2 days
- Hepatocyte stability [9]: Stable > couple hrs
- total platelet count versus control ([10]; day 5 after transplant): significantly higher total platelet count
- total white count versus control ([10]; day 5 after transplant): significantly higher total white count
- platelets ([10]; day 8 after transplant): 77,000
- neutrophils ([10]; day 12 after transplant): 332
- neutrophils ([10]; day 18 after transplant): 835
